Assay results: patent publication US20230218654A1, “COMPOSITIONS AND METHODS FOR TREATING HYPERGLYCEMIA IN TYPE-2 DIABETES” (The Board of Regents of the university of Oklahoma, priority 2020, published 2023)

What was measured:
[1] = test system: insulin resistant and obese male C57BL/6J mice; test: Acute TAS4464 treatment of obese, insulin resistant WD-fed mice; format: in vivo; details: WD 8 weeks
Procedure: Mice were fed WD for 8 weeks to render them insulin resistant and obese. Mice were then treated with 45 mg/kg TAS4464 or vehicle once at 5 pm on day 1 and once at 9 am on day 2. Body weight and blood glucose were measured at 3 pm on day 2.
Mice were fed WD for 8 weeks, after which the mice were injected with vehicle or 45 mg/kg TAS4464 subcutaneously at 5 pm on day 1 and 9 am on day 2. Mice were fasted from 9 am to 3 pm on day 2 and blood glucose was measured. Results are expressed as mean ± SEM. […]. “*”, p < 0.05, vs. Vehicle.
(§1) MLN4924 and TAS4464 were purchased from MedChemExpress (MCE, Monmouth Junction, NJ). For cell treatment, MLN4924 and TAS4464 were dissolved in DMSO. Cells were serum starved overnight and then treated with MLN4924, TAS4464 and/or insulin as indicated. For injection in mice, MLN4924 and TAS4464 were first dissolved in DMSO, which was further suspended in 10% (2-hydroxypropyl)-β-cyclodextrin (Sigma, St. Louis, MO). The final solution contains 1% DMSO. The subcutaneous injection volume is 200 µl/mouse.
Treatment of obese mice with TASS4464 reduced the blood glucose to ~100 mg/dl.

[2] = test system: male C57BL6/J mice; test: Plasma/serum insulin and c-peptide after acute neddylation inhibitor treatment; format: in vivo; details: 6 h fast
Procedure: Male C57BL6/J mice on chow diet were treated with 45 mg/kg TAS4464 via subcutaneous injection at 9 am. Mice were then fasted for 6 hours and serum insulin was measured. Blood samples were collected at 0 min and 120 min and used for insulin measurement (n=4). Left-hand bars are controls. Right-hand bars are TAS4464 treatments.
Male C57BL6/J mice on Western diet were treated with 15 mg/kg TAS4464 via subcutaneous injection at 9 am. Mice were then fasted for 6 hours and serum c-peptide were measured (n=5).
Male C57BL6/J mice on chow diet were treated with 60 mg/kg MLN4924 via subcutaneous injection at 9 am. Mice were then fasted for 6 hours and serum c-peptide were measured (n=8)
Aspartate aminotransferase (AST) and alanine aminotransferase (ALT) assay kits were purchased from Pointe Scientific (Canton, MI). Free fatty acid assay kit was purchased from Biovision Inc. (Milpitas, CA). Insulin ELISA kit was purchased from Crystal Chem Inc. (Elk Grove Village, IL).
A hyperinsulinemic-euglycemic clamp study was conducted in which obese mice were treated with vehicle or MLN4924.

[3] = test system: AML12 mouse hepatocytes; test: Western blot of insulin signaling and cullin neddylation in AML12 cells; format: cell-based
Procedure: MLN4924 increases IRS protein and AKT activation in the presence of insulin. Mouse AML 12 hepatocytes were serum starved for 16 h. Cells were then pre-treated with MLN4924 for 1 h followed by 100 nM insulin stimulation for 4 h. Western blot was then performed to evaluate insulin signaling activation.
AML 12 cells were serum starved for 16 h. Cells were then pre-treated with 500 nM MLN4924 or vehicle (DMSO) for 1 h, followed by 100 µg/ml cycloheximide (CHX) and 100 nM insulin treatment.
AML12 cells were serum starved for 16 h. Cells were then pre-treated with 500 nM MLN4924 for 1 h followed by 100 nM insulin stimulation in time course.
FIG. 18A is a Western blot analysis showing that MLN4924 enhances hepatocyte insulin responsiveness (signaling) by delaying feedback IRS degradation. AML12 cells were serum starved for 16 h. Cells were then pre-treated with MLN4924 for 1 h followed by insulin stimulation for 4 h.
FIG. 18D is a Western blot analysis of insulin signaling in AML12 cells serum starved for 16 h, then pre-treated with 500 nM MLN4924 for 1 h followed by 100 nM insulin stimulation in time course.
FIG. 18E is a Western blot analysis of AML12 cells serum starved for 16 h then pre-treated with 500 nM MLN4924 or vehicle (DMSO) for 1 h, followed by 100 µg/ml cycloheximide (CHX) and 100 nM insulin treatment. Cells were collected at the indicated time for Western blotting.
FIG. 18F is a Western blot analysis of insulin signaling in AML12 cells serum starved for 16 h then pre-treated with 100 nM rapamycin and 500 nM MLN4924 as indicated for 1 h followed by additional 2 h incubation in the presence or absence of 100 nM insulin. Blots are representative of 2-4 independent experiments.
(§2) FIG. 20 is a Western blot analysis showing that MLN4924 enhances hepatocyte insulin responsiveness in cells treated with wortmannin by delaying feedback IRS degradation (related to FIG. 18A). AML12 cells were serum starved for 16 h then pre-treated with 1 µM wortmannin (Wort) and 500 nM MLN4924 as indicated for 1 h followed by additional 2 h incubation in the presence or absence of 100 nM insulin. Blots are representative of 2 independent experiments.
as §2, with “21” for “20”, “Torin 1” for “wortmannin”, “250 nM Torin1” for “1 µM wortmannin (Wort)”
as §1
Protein lysates were prepared in RIPA buffer containing 1% SDS and protease inhibitors on ice for 1 h followed by brief sonication. After centrifugation, supernatant was used for SDS-PAGE and immunoblotting.
AML12 cells were a generous gift from Dr. Yanqiao Zhang (Northeast Ohio Medical University). AML12 cells were cultured in DMEM medium supplemented with a mixture of insulin-transferrin-selenium (#41400-045, ThermoFisher, Waltham, MA). For experiments, cells were cultured in serum free medium overnight before various treatments were initiated. The siGENOME SMARTpool siRNA and siControl were purchased from Dharmacon, Inc. (Lafayette, CO). The siRNA was transfected with Lipofectamine RNAiMAX reagent in a final concentration of 25 nM recommended by the manufacturer. […]

[4] = 1 µM wortmannin or 250 nM Torin1, 100 nM insulin

| Structure (SMILES) | blood glucose after 6-hour fast ([1]; 45 mg/kg SQ at 5 pm day 1 and 9 am day 2) | blood glucose (in words) ([1]; 45 mg/kg SQ twice, 6 h fast) | serum c-peptide concentration ([2]; Western diet, 15 mg/kg SQ at 9 am) | serum insulin concentration ([2]; chow diet, 45 mg/kg SQ at 9 am) | IRS protein ([3]; TAS4464 increasing doses, 5 h) | neddylated cullin 1 ([3]; TAS4464 increasing doses, 5 h) | total neddylated cullins ([3]; TAS4464 increasing doses, 5 h) | downstream AKT activation [3, 4] | downstream mTOR activation [3, 4] |
| --- | --- | --- | --- | --- | --- | --- | --- | --- | --- |
| CCOc1cccc(F)c1C#Cc1cn([C@@H]2O[C@H](CNS(N)(=O)=O)[C@@H](O)[C@H]2O)c2ncnc(N)c12 [TAS4464, 7H-Pyrrolo[2,3-d]pyrimidin-4-amine, 7-[5-[(aminosulfonyl)amino]-5-deoxy-beta-D-ribofuranosyl]-5-[2-(2-ethoxy-6-fluorophenyl)ethynyl]-] | ~ 100 mg/dl | acutely reduced blood glucose | elevated serum c-peptide concentration | increases serum insulin concentration | increased IRS protein | significantly inhibited | significantly inhibited | – | – |
| CCC(=O)N1CCN(c2ccc(-n3c(=O)ccc4cnc5ccc(-c6cnc7ccccc7c6)cc5c43)cc2C(F)(F)F)CC1 [Torin 1] | – | – | – | – | – | – | – | decreased downstream AKT activation | blocked downstream mTOR activation |
